Measured values from patent publication US9580430B2, “9H-pyrimido[4,5-B]indoles and related analogs as BET bromodomain inhibitors” (THE REGENTS OF THE UNIVERSITY OF MICHIGAN, priority 2014, dated 2017).

Columns and labels:
MOLM-13 = assay: Cell growth inhibition, MOLM-13 leukemia cells (CellTiter-Glo); type: cell-based; conditions: Homo sapiens, MOLM-13, 96 h; 4 days; read-out: IC50 (nM) MOLM-13 Cell Line (CellTiter-Glo assay)
Outline: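 MOLM-13 leukemia cells treated with compounds; viability read by CellTiter-Glo luminescence after 10-20 min reagent incubation at room temperature. IC50 derived from luminescent signal.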

recombinant BRD4 BD2 = target: T1, recombinant BRD4 BD2 (Homo sapiens, UniProt O60885); assay: Competitive fluorescence-polarization (FP) binding assay, BRD4 BD2; conditions: competitive FP assay; protein 6 nM, probe […]; read-out: IC50 (nM) BRD4 BD2; also: probe 1.5 nM
T1 construct: for recombinant BRD4 BD1 and BRD4 BD2 proteins
Outline: (§1)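 FP competition with FAM-labelled probe (ZBA248 or BRD-1F) against preincubated protein/probe complex; BD1 at 10 nM and BD2 at 6 nM final, in 100 mM potassium phosphate pH 6.5, 0.01% Triton X-100. 30 min, room temperature. IC50 by nonlinear regression; Ki also derived, using probe Kd from protein saturation.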

recombinant BRD4 BD1 = target: T2, recombinant BRD4 BD1 (Homo sapiens, UniProt O60885); assay: Competitive fluorescence-polarization (FP) binding assay, BRD4 BD1; conditions: competitive FP assay; protein 10 nM, probe […]; read-out: IC50 (nM) BRD4 BD1; also: probe 1.5 nM
T2 construct: for recombinant BRD4 BD1 and BRD4 BD2 proteins
Outline: as §1

MDA-MB-436 = assay: Cell growth inhibition, MDA-MB-436 breast cancer cells (WST-8); type: cell-based; conditions: Homo sapiens, MDA-MB-436, 96 h; 4 days; read-out: IC50 (nM) MDA-MB-436 Cell Line (WST assay)
Outline: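 IC50 was computed from WST-8-based cell counting in MDA-MB-436 cells, with absorbance read at 450 nm.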

Row | SMILES | IC50 (MOLM-13) [nM] | IC50 (recombinant BRD4 BD2) [nM] | IC50 (recombinant BRD4 BD1) [nM] | IC50 (MDA-MB-436) [nM]
1 | COc1cc2c(cc1-c1c(C)noc1C)[nH]c1nc(C)nc(Nc3cccc4ncccc34)c12 [Cpd. No. 211, 7-(3,5-dimethylisoxazol-4-yl)-6-methoxy-2-methyl-N-(quinolin-5-yl)-9H-pyrimido[4,5-b]indol-4-amine] | 76 | 17 | 16 | 57
2 | COc1cc2c(cc1-c1c(C)noc1C)[nH]c1nc(C)nc(Nc3cn(C)nc3C(C)(C)C)c12 [Cpd. No. 193, N-(3-(tert-butyl)-1-methyl-1H-pyrazol-4-yl)-7-(3,5-dimethylisoxazol-4-yl)-6-methoxy-2-methyl-9H-pyrimido[4,5-b]indol-4-amine] | 8.1 | 2.7 | 3.6 | 47.5
3 | COc1cc2c(cc1-c1c(C)noc1C)[nH]c1nc(C)nc(Nc3cnn4c3CCCC4)c12 [Cpd. No. 139, 7-(3,5-Dimethylisoxazol-4-yl)-6-methoxy-2-methyl-N-(4,5,6,7-tetrahydropyrazolo[1,5-a]pyridin-3-yl)-9H-pyrimido[4,5-b]indol-4-amine] | 49.2 | 16.5 | 16.3 | 110
4 | COc1cc2c(cc1-c1c(C)noc1C)[nH]c1nc(C)nc(Nc3cc(C4CC4)nn3C)c12 [Cpd. No. 121, N-(3-Cyclopropyl-1-methyl-1H-pyrazol-5-yl)-7-(3,5-dimethylisoxazol-4-yl)-6-methoxy-2-methyl-9H-pyrimido[4,5-b]indol-4-amine] | 11.7 | 3.2 | 1.6 | 11.2
5 | COc1cc2c(cc1-c1c(C)noc1C)[nH]c1nc(C)nc(Nc3cc(C)nn3C3CC3)c12 [Cpd. No. 192, N-(1-cyclopropyl-3-methyl-1H-pyrazol-5-yl)-7-(3,5-dimethylisoxazol-4-yl)-6-methoxy-2-methyl-9H-pyrimido[4,5-b]indol-4-amine] | 114 | 114 | 30.1 | 422
6 | COc1cc2c(cc1-c1c(C)noc1C)[nH]c1nc(C)nc(Nc3nn(C)c4c(F)cccc34)c12 [Cpd. No. 129, 7-(3,5-Dimethylisoxazol-4-yl)-N-(7-fluoro-1-methyl-1H-indazol-3-yl)-6-methoxy-2-methyl-9H-pyrimido[4,5-b]indol-4-amine] | 144 | 202 | 105 | 201
7 | COc1cc2c(cc1-c1c(C)noc1C)[nH]c1nc(C)nc(Nc3c(C)noc3C)c12 [Cpd. No. 215, N-(7-(3,5-dimethylisoxazol-4-yl)-6-methoxy-2-methyl-9H-pyrimido[4,5-b]indol-4-yl)-3,5-dimethylisoxazol-4-amine] | 318 | 57 | 128 | 360
8 | COc1cc2c(cc1-c1c(C)noc1C)[nH]c1nc(C(C)C)nc(Nc3nn(C)c4ccccc34)c12 [Cpd. No. 18, 7-(3,5-Dimethylisoxazol-4-yl)-2-isopropyl-6-methoxy-N-(1-methyl-1H-indazol-3-yl)-9H-pyrimido[4,5-b]indol-4-amine] | 86.2 | 1160 | 211 | 141
9 | COc1cccc(Nc2nc(C)nc3[nH]c4cc(-c5c(C)noc5C)c(OC)cc4c23)c1 [Cpd. No. 213, 7-(3,5-dimethylisoxazol-4-yl)-6-methoxy-N-(3-methoxyphenyl)-2-methyl-9H-pyrimido[4,5-b]indol-4-amine] | 103 | 28 | 54 | 211
10 | COc1cc2c(cc1-c1c(C)noc1C)[nH]c1nc(C)nc(Nc3cccc(Cl)c3)c12 [Cpd. No. 97, N-(3-chlorophenyl)-7-(3,5-dimethylisoxazol-4-yl)-6-methoxy-2-methyl-9H-pyrimido[4,5-b]indol-4-amine] | 43 | 8 | 34 | 180
11 | CCc1cccc(Nc2nc(C)nc3[nH]c4cc(-c5c(C)noc5C)c(OC)cc4c23)c1 [Cpd. No. 216, 7-(3,5-dimethylisoxazol-4-yl)-N-(3-ethylphenyl)-6-methoxy-2-methyl-9H-pyrimido[4,5-b]indol-4-amine] | 220 | 35 | 19 | 292
12 | COc1cc2c(cc1-c1c(C)noc1C)[nH]c1nc(C)nc(Nc3n[nH]c4ccccc34)c12 [Cpd. No. 58, 7-(3,5-Dimethylisoxazol-4-yl)-N-(1H-indazol-3-yl)-6-methoxy-2-methyl-9H-pyrimido[4,5-b]indol-4-amine] | 32 | 22.6 | 11 | 54.6
13 | COc1cc2c(cc1-c1c(C)noc1C)[nH]c1nc(C)nc(Nc3c4c(nn3C(C)C)CCCC4)c12 [Cpd. No. 138, 7-(3,5-Dimethylisoxazol-4-yl)-N-(2-isopropyl-4,5,6,7-tetrahydro-2H-indazol-3-yl)-6-methoxy-2-methyl-9H-pyrimido[4,5-b]indol-4-amine] | 5.7 | 1.2 | 4.2 | 30.3
14 | CCc1nn(C)c(CC)c1Nc1nc(C)nc2[nH]c3cc(-c4c(C)noc4C)c(OC)cc3c12 [Cpd. No. 240, N-(3,5-diethyl-1-methyl-1H-pyrazol-4-yl)-7-(3,5-dimethylisoxazol-4-yl)-6-methoxy-2-methyl-9H-pyrimido[4,5-b]indol-4-amine] | 20 | 20 | 13 | 46
15 | COc1cc2c(cc1-c1c(C)noc1C)[nH]c1nc(C)nc(Nc3nn(C)c4cccnc34)c12 [Cpd. No. 123, 7-(3,5-Dimethylisoxazol-4-yl)-6-methoxy-2-methyl-N-(1-methyl-1H-pyrazolo[4,3-b]pyridin-3-yl)-9H-pyrimido[4,5-b]indol-4-amine] | 759 | 483 | 257 | 1420
16 | CCn1nc(C)cc1Nc1nc(C)nc2[nH]c3cc(-c4c(C)noc4C)c(OC)cc3c12 [Cpd. No. 116, 7-(3,5-Dimethylisoxazol-4-yl)-N-(1-ethyl-3-methyl-1H-pyrazol-5-yl)-6-methoxy-2-methyl-9H-pyrimido[4,5-b]indol-4-amine] | 15.4 | 9.6 | 14 | 26.3
17 | COc1cc2c(cc1-c1c(C)noc1C)[nH]c1nc(C)nc(Nc3cnccc3C)c12 [Cpd. No. 109, 7-(3,5-dimethylisoxazol-4-yl)-6-methoxy-2-methyl-N-(4-methylpyridin-3-yl)-9H-pyrimido[4,5-b]indol-4-amine] | 12 | 253 | 284 | 679
18 | COc1cc2c(cc1-c1c(C)noc1C)[nH]c1nc(C)nc(Nc3cnn4ccccc34)c12 [Cpd. No. 14, 7-(3,5-Dimethylisoxazol-4-yl)-6-methoxy-2-methyl-N-(pyrazolo[1,5-a]pyridin-3-yl)-9H-pyrimido[4,5-b]indol-4-amine] | 23.7 | 22.6 | 14.6 | 83.3
19 | COc1cc2c(cc1-c1c(C)noc1C)[nH]c1nc(C)nc(Nc3c(C4CC4)c(C)nn3C)c12 [Cpd. No. 140, N-(4-Cyclopropyl-1,3-dimethyl-1H-pyrazol-5-yl)-7-(3,5-dimethylisoxazol-4-yl)-6-methoxy-2-methyl-9H-pyrimido[4,5-b]indol-4-amine] | 120 | 95 | 39.3 | 210
20 | COc1cc2c(cc1-c1c(C)noc1C)[nH]c1nc(C)nc(Nc3c(C(C)C)cnn3C)c12 [Cpd. No. 79, 7-(3,5-dimethylisoxazol-4-yl)-N-(4-isopropyl-1-methyl-1H-pyrazol-5-yl)-6-methoxy-2-methyl-9H-pyrimido[4,5-b]indol-4-amine] | 43.9 | 1.8 | 9.3 | 121
21 | COc1cc2c(cc1-c1c(C)noc1C)[nH]c1nc(C)nc(Nc3cnn4cccnc34)c12 [Cpd. No. 16, 7-(3,5-Dimethylisoxazol-4-yl)-6-methoxy-2-methyl-N-(pyrazolo[1,5-a]pyrimidin-3-yl)-9H-pyrimido[4,5-b]indol-4-amine] | 14.6 | 194 | 248 | 529
22 | COc1cc2c(cc1-c1c(C)noc1C)[nH]c1nc(C)nc(Nc3cc(C(F)(F)F)nn3C)c12 [Cpd. No. 21, 7-(3,5-Dimethylisoxazol-4-yl)-6-methoxy-2-methyl-N-(1-methyl-3-(trifluoromethyl)-1H-pyrazol-5-yl)-9H-pyrimido[4,5-b]indol-4-amine] | 21.9 | 34.6 | 13.3 | 52.7
23 | COc1cc2c(cc1-c1c(C)noc1C)[nH]c1nc(C)nc(Nc3cn(C)nc3C3CCC3)c12 [Cpd. No. 200, N-(3-cyclobutyl-1-methyl-1H-pyrazol-4-yl)-7-(3,5-dimethylisoxazol-4-yl)-6-methoxy-2-methyl-9H-pyrimido[4,5-b]indol-4-amine] | 25.4 | 5.9 | 10.9 | 40
24 | COc1cc2c(cc1-c1c(C)noc1C)[nH]c1nc(C)nc(Nc3onc(C)c3C)c12 [Cpd. No. 219, N-(7-(3,5-dimethylisoxazol-4-yl)-6-methoxy-2-methyl-9H-pyrimido[4,5-b]indol-4-yl)-3,4-dimethylisoxazol-5-amine] | 912 | 365 | 219 | 849
